The record followed here is patent publication EP0253662B1, “Pharmaceutical compositions” (ED. GEISTLICH SÖHNE AG FÜR CHEMISCHE INDUSTRIE, priority 1986, dated 1988).

Values after ≈ are worked out from the molar mass of the structure shown.

One data set in a line: water-solubility. Type of data set: physicochemical. The following applies: in water. The method, then: However, the water-solubility of both compounds is relatively low, namely I g/litre in the case of taurolidine and 8 g/litre in the case of taurultam. Relatively large quantities of the compounds are required where toxaemia is well established and even where the compounds are administered in large volumes by intravenous infusion, low solubility can limit their use. In particular, during treatment of patients suffering from septic shock and consequent renal insufficiency, administration of significant quantities of liquid (after an initial period of volume compensation) is contra-indicated and the intravenous infusion solution should be as concentrated as possible. Where glucose is present, this is also beneficial in such cases in order to support the brain cells.

Data set [1] in a line: intravenous infusion tolerance (vagotonic side effects). The format is in vivo. The text has this:
This is a surprising effect of considerable value in ensuring that taurolidine can be given intravenously at a rapid rate of infusion, for example in cases of endotoxin shock. In general, the overall intravenous tolerance of taurolidine is increased by the presence of glucose. The same advantages apply also to taurultam.

In “water-solubility”, `O=S1(=O)CCNCN1` [taurultam] registered a solubility of 8000 µg/mL (≈ 58.7 mM).

In the case of `O=S1(=O)CCN(CN2CCS(=O)(=O)NC2)CN1` [taurolidine], the “vagotonic side effects, such as meiosis, lachrymation, salivation, bradycardia and excitation” value in data set [1] (2% aqueous taurolidine containing polyvinylpyrrolidone, administered intravenously, high rates of infusion) is on record as “short duration vagotonic side effects occur”. In data set [1] (administered in glucose solution rather than polyvinylpyrrolidone, intravenously), the vagotonic effects entry was “such vagotonic effects are not observed”.

A word on the solubility: it is the dissolved amount per volume that the medium holds. Low readings indicate little dissolved substance, high ones much dissolved substance.
